Results taken from patent US8389472B2, “Exendin-4 to treat nonalcoholic steatohepatitis and nonalcoholic fatty liver disease” (Amylin Pharmaceuticals, LLC, priority 2005, dated 2013).
No end group written: not given here.

What was measured:
[1] = in treated test animals; cited from earlier work
[2] = adsorption onto glass container in liquid form; type: physicochemical
Excerpt: However, with regard to compounds Which do have such a tendency when in liquid final, a surfactant should be used in their formulation. These formulations may then be lyophilized. Surfactants frequently cause denaturation of protein, both of hydrophobic disruption and by salt bridge separation. Relatively low concentrations of surfactant may exert a potent denaturing activity, because of the strong interactions between surfactant moieties and the reactive sites on proteins. However, judicious use of this interaction can stabilize proteins against interfacial or surface denaturation. Surfactants which could further stabilize the peptide may optionally be present in the range of about 0.001 to 0.3% (w/v) of the total formulation and include polysorbate 80 (i.e., polyoxyethylene(20) sorbitan monooleate), CHAPS® (i.e., 3-[(3-Cholamidopropyl)dimethylammonio]propanesulfonic acid), BRIJ® (e.g., Brij 35, which is (polyoxyethylene(23) lauryl ether), poloxamer, or another non-ionic surfactant.

[3] = compared to human amylin; cited from earlier work
cloned GLP-1 receptor = details: cells transfected with the cloned GLP-1 receptor; cited from earlier work
T2DM patients = details: head-to-head comparator trial; cited from earlier work

Molecule: CC[C@H](C)[C@H](NC(=O)[C@@H]1CCCN1C(=O)CNC(=O)[C@H](Cc1ccccc1)NC(=O)[C@H](CC(N)=O)NC(=O)[C@H](CC(N)=O)NC(=O)[C@H](CO)NC(=O)[C@H](CO)NC(=O)[C@H](Cc1c[nH]cn1)NC(=O)[C@@H](NC(=O)[C@H](CC(C)C)NC(=O)[C@H](Cc1ccccc1)NC(=O)[C@H](CC(N)=O)NC(=O)[C@H](C)NC(=O)[C@H](CC(C)C)NC(=O)[C@H](CCCNC(=N)N)NC(=O)[C@H](CCC(N)=O)NC(=O)[C@@H](NC(=O)[C@H](C)NC(=O)[C@@H]1CSSC[C@H](NC(=O)[C@@H](N)CCCCN)C(=O)N[C@@H](CC(N)=O)C(=O)N[C@@H]([C@@H](C)O)C(=O)N[C@@H](C)C(=O)N[C@@H]([C@@H](C)O)C(=O)N1)[C@@H](C)O)C(C)C)C(=O)N[C@@H](CC(C)C)C(=O)N1CCC[C@H]1C(=O)N1CCC[C@H]1C(=O)N[C@H](C(=O)N[C@@H](CC(N)=O)C(=O)N[C@H](C(=O)NCC(=O)N[C@@H](CO)C(=O)N[C@@H](CC(N)=O)C(=O)N[C@H](C(=O)N[C@@H](Cc1ccc(O)cc1)C(N)=O)[C@@H](C)O)C(C)C)[C@@H](C)O [^25,28,29Pro-h-amylin, reference compound]
- amylin activity [1]: amylin activity in vivo
- tendency to adsorb onto the glass [2]: does not have a tendency to adsorb onto the glass

Molecule: ^18Arg^25,28Pro-h-amylin (KCNTATCATQRLANFLVRSSNNFGPILPSTNVGSNTY) [amylin agonist analog]
- amylin activity [1]: amylin activity in vivo
- solubility and stability characteristics [3]: more desirable solubility and stability characteristics

Molecule: ^25Pro^26Val^28,29Pro-h-amylin (KCNTATCATQRLANFLVHSSNNFGPVLPPTNVGSNTY) [amylin agonist analog]
- solubility and stability characteristics [3]: more desirable solubility and stability characteristics

Molecule: ^28Pro-h-amylin (KCNTATCATQRLANFLVHSSNNFGAILPSTNVGSNTY) [amylin agonist analog]
- amylin activity [1]: amylin activity in vivo

Molecule: des-^1Lys-h-amylin (CNTATCATQRLANFLVHSSNNFGAILSSTNVGSNTY; ends and bridges not checked; cysteine pairing not given here; UniProt P10997 34-70, looked up, variant K1*) [amylin agonist analog]
- amylin activity [1]: amylin activity in vivo

Molecule: des-^1Lys^18Arg^25,28Pro-h-amylin
- amylin activity [1]: amylin activity in vivo

Molecule: exendin[9-39]
- functional activity (cAMP) (cloned GLP-1 receptor): antagonist

Molecule: insulin glargine
- HbA1c reductions (T2DM patients): ~1.1%
- weight gain (T2DM patients): ~1.8 kg
